Test results: patent publication US7402548B2, “Benzoxazole compounds, process for producing the same and herbicides” (Kyoyu Agri Co., Ltd., priority 2000, dated 2008)

Experiments:
barnyard grass [1] = assay: Herbicidal test for paddy field; type: in vivo, Eschinochloa crusgalli; conditions: 500 g/ha, dropwise addition to paddy water at 1.5 leaf stage of barnyard grass; glass house 25° C., 3 weeks; rank 0-5 vs non-treated district
Description: (§1) Wagner pots, each having an area of 1/5000 are, were packed with Ube soil (alluvial soil) and planted with seeds or tubers of young rice plant, barnyard grass, bulrush, Cyperus serotinus Rottb., arrowhead and monochoria. Then, the pots were filled with water to a depth of 3 cm.
(§2) Each wettable powder of the desired Compounds (I) shown in Tables 1 to 21, 24, 25, 28 and 29 prepared in accordance with Example 2 was diluted with water containing a surfactant (0.05%) and subjected to dropwise addition treatment by using pipet so that an effective concentration of the compound (I) in each herbicide became 500 g/ha at 1.5 leaf stage of barnyard grass.
(§3) These plants were controlled in a glass house at an average temperature of 25° C. for 3 weeks, and then herbicidal effects thereof were investigated.
(§4) The herbicidal effects are evaluated according to the following 6 ranks as compared with non-treated district. (0: normal development, 1: Less damaged, 2: Slightly damaged, 3: Moderately damaged, 4: Severely damaged, 5: All killed). Incidentally, “-” in the column means not investigated.

bulrush = assay: Herbicidal test for paddy field; type: in vivo, Scrips juncoides; conditions: 500 g/ha, dropwise addition to paddy water at 1.5 leaf stage of barnyard grass; glass house 25° C., 3 weeks; rank 0-5 vs non-treated district
Description: as §1, §2, §3, §4

corn [2] = assay: Soil treatment test for upland field; type: in vivo; set-up: key: 0 = normal development, 5 = all killed; conditions: 500 g/ha, 3 weeks, glass house 25° C.
Outline: (§5)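 Scored on a 0–5 scale (0 normal growth, 5 all killed) relative to untreated plots after 3 weeks in a glasshouse averaging 25° C. Compound applied as surfactant-containing (0.05%) aqueous dilution of wettable powder onto the surface of sown Ube alluvial soil at 500 g/ha.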

solgum [3] = assay: Soil treatment test for upland field; type: in vivo; set-up: key: 0 = normal development, 5 = all killed; conditions: 500 g/ha, 3 weeks, glass house 25° C.
Outline: as §5

soybean [4] = assay: Soil treatment test for upland field; type: in vivo; set-up: key: 0 = normal development, 5 = all killed; conditions: 500 g/ha, 3 weeks, glass house 25° C.
Outline: as §5

sugar beat [5] = assay: Soil treatment test for upland field; type: in vivo; set-up: key: 0 = normal development, 5 = all killed; conditions: 500 g/ha, 3 weeks, glass house 25° C.
Outline: as §5

wheat [6] = assay: Soil treatment test for upland field; type: in vivo; set-up: key: 0 = normal development, 5 = all killed; conditions: 500 g/ha, 3 weeks, glass house 25° C.
Outline: as §5

Large crabgrass [7] = assay: Soil treatment test for upland field; type: in vivo, Digitaria adscendens; set-up: key: 0 = normal development, 5 = all killed; conditions: 500 g/ha, 3 weeks, glass house 25° C.
Outline: as §5

barnyard grass [8] = assay: Soil treatment test for upland field; type: in vivo, Eschinochloa crusgalli; set-up: key: 0 = normal development, 5 = all killed; conditions: 500 g/ha, 3 weeks, glass house 25° C.
Outline: as §5

green foxtail [9] = assay: Soil treatment test for upland field; type: in vivo, Setaria viridis; set-up: key: 0 = normal development, 5 = all killed; conditions: 500 g/ha, 3 weeks, glass house 25° C.
Outline: as §5

blackgrass [10] = assay: Soil treatment test for upland field; type: in vivo, Alopecurus aegualis; set-up: key: 0 = normal development, 5 = all killed; conditions: 500 g/ha, 3 weeks, glass house 25° C.
Outline: as §5

annual bluegrass [11] = assay: Soil treatment test for upland field; type: in vivo, Poa annua; set-up: key: 0 = normal development, 5 = all killed; conditions: 500 g/ha, 3 weeks, glass house 25° C.
Outline: as §5

common lambsquarters [12] = assay: Soil treatment test for upland field; type: in vivo, Chenopodium album; set-up: key: 0 = normal development, 5 = all killed; conditions: 500 g/ha, 3 weeks, glass house 25° C.
Outline: as §5

livid amaranth [13] = assay: Soil treatment test for upland field; type: in vivo, Amaranthus lividus; set-up: key: 0 = normal development, 5 = all killed; conditions: 500 g/ha, 3 weeks, glass house 25° C.
Outline: as §5

velvetleaf [14] = assay: Soil treatment test for upland field; type: in vivo, Abutilon theophrasti; set-up: key: 0 = normal development, 5 = all killed; conditions: 500 g/ha, 3 weeks, glass house 25° C.
Outline: as §5

morning glory [15] = assay: Soil treatment test for upland field; type: in vivo, Ipomoea spps.; set-up: key: 0 = normal development, 5 = all killed; conditions: 500 g/ha, 3 weeks, glass house 25° C.
Outline: as §5

corn [16] = assay: Foliar spread test for upland field; type: in vivo; set-up: key: 0 = normal development, 5 = all killed (6 ranks vs. untreated); conditions: foliar spray, 500 ppm, 3 weeks, glass house 25° C.
Outline: (§6)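 Plants grown about 2 weeks at 25 °C in volcanic ash soil were sprayed with wettable powder diluted to 500 ppm in water with 0.5% surfactant. After 3 weeks at 25 °C, damage was scored 0 (normal) to 5 (all killed) against untreated plants.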

cotton = assay: Foliar spread test for upland field; type: in vivo; set-up: key: 0 = normal development, 5 = all killed (6 ranks vs. untreated); conditions: foliar spray, 500 ppm, 3 weeks, glass house 25° C.
Outline: as §6

solgum [17] = assay: Foliar spread test for upland field; type: in vivo; set-up: key: 0 = normal development, 5 = all killed (6 ranks vs. untreated); conditions: foliar spray, 500 ppm, 3 weeks, glass house 25° C.
Outline: as §6

soybean [18] = assay: Foliar spread test for upland field; type: in vivo; set-up: key: 0 = normal development, 5 = all killed (6 ranks vs. untreated); conditions: foliar spray, 500 ppm, 3 weeks, glass house 25° C.
Outline: as §6

sugar beat [19] = assay: Foliar spread test for upland field; type: in vivo; set-up: key: 0 = normal development, 5 = all killed (6 ranks vs. untreated); conditions: foliar spray, 500 ppm, 3 weeks, glass house 25° C.
Outline: as §6

wheat [20] = assay: Foliar spread test for upland field; type: in vivo; set-up: key: 0 = normal development, 5 = all killed (6 ranks vs. untreated); conditions: foliar spray, 500 ppm, 3 weeks, glass house 25° C.
Outline: as §6

Large crabgrass [21] = assay: Foliar spread test for upland field; type: in vivo, Digitaria adscendens; set-up: key: 0 = normal development, 5 = all killed (6 ranks vs. untreated); conditions: foliar spray, 500 ppm, 3 weeks, glass house 25° C.
Outline: as §6

barnyardgrjass = assay: Foliar spread test for upland field; type: in vivo, Eschinochloa crusgalli; set-up: key: 0 = normal development, 5 = all killed (6 ranks vs. untreated); conditions: foliar spray, 500 ppm, 3 weeks, glass house 25° C.
Outline: as §6

green foxtail [22] = assay: Foliar spread test for upland field; type: in vivo, Setaria viridis; set-up: key: 0 = normal development, 5 = all killed (6 ranks vs. untreated); conditions: foliar spray, 500 ppm, 3 weeks, glass house 25° C.
Outline: as §6

blackgrass [23] = assay: Foliar spread test for upland field; type: in vivo, Alopecurus aegualis; set-up: key: 0 = normal development, 5 = all killed (6 ranks vs. untreated); conditions: foliar spray, 500 ppm, 3 weeks, glass house 25° C.
Outline: as §6

annual bluegrass [24] = assay: Foliar spread test for upland field; type: in vivo, Poa annua; set-up: key: 0 = normal development, 5 = all killed (6 ranks vs. untreated); conditions: foliar spray, 500 ppm, 3 weeks, glass house 25° C.
Outline: as §6

common lambsquarters [25] = assay: Foliar spread test for upland field; type: in vivo, Chenopodium album; set-up: key: 0 = normal development, 5 = all killed (6 ranks vs. untreated); conditions: foliar spray, 500 ppm, 3 weeks, glass house 25° C.
Outline: as §6

livid amaranth [26] = assay: Foliar spread test for upland field; type: in vivo, Amaranthus lividus; set-up: key: 0 = normal development, 5 = all killed (6 ranks vs. untreated); conditions: foliar spray, 500 ppm, 3 weeks, glass house 25° C.
Outline: as §6

velvetleaf [27] = assay: Foliar spread test for upland field; type: in vivo, Abutilon theophrasti; set-up: key: 0 = normal development, 5 = all killed (6 ranks vs. untreated); conditions: foliar spray, 500 ppm, 3 weeks, glass house 25° C.
Outline: as §6

morning glory [28] = assay: Foliar spread test for upland field; type: in vivo, Ipomoea spps.; set-up: key: 0 = normal development, 5 = all killed (6 ranks vs. untreated); conditions: foliar spray, 500 ppm, 3 weeks, glass house 25° C.
Outline: as §6

Cyperus serotinus Rottb. = assay: Herbicidal test for paddy field; type: in vivo; conditions: 500 g/ha, dropwise addition to paddy water at 1.5 leaf stage of barnyard grass; glass house 25° C., 3 weeks; rank 0-5 vs non-treated district
Description: as §1, §2, §3, §4

SMILES: CCCC(=Cc1cccc(C(F)(F)F)c1)c1nc2cc(C#N)c(Cl)cc2o1 [I-c-145]
- Effects Barnyardgrass (barnyard grass [1]): 4
- Effects Bulrush (bulrush): 3
- Effects Corn (corn [2]): 0
- Effects Solgum (solgum [3]): 1
- Effects Soybean (soybean [4]): 0
- Effects Sugar beat (sugar beat [5]): 5
- Effects Wheat (wheat [6]): 1
- Effects Large crabgrass (Large crabgrass [7]): 5
- Effects Barnyardgrass (barnyard grass [8]): 4
- Effects Green foxtail (green foxtail [9]): 5
- Effects Blackgrass (blackgrass [10]): 5
- Effects Annual bluegrass (annual bluegrass [11]): 5
- Effects Common lambsquarters (common lambsquarters [12]): 5
- Effects Livid amaranth (livid amaranth [13]): 5
- Effects Velvetleaf (velvetleaf [14]): 5
- Effects Morning glory (morning glory [15]): 5
- Effects Corn (corn [16]): 2
- Effects Sotton (cotton): 4
- Effects Solgum (solgum [17]): 2
- Effects Soybean (soybean [18]): 5
- Effects Sugar beat (sugar beat [19]): 3
- Effects Wheat (wheat [20]): 2
- Effects Large crabgrass (Large crabgrass [21]): 3
- Effects Barnyardgrass (barnyardgrjass): 2
- Effects Green foxtail (green foxtail [22]): 5
- Effects Blackgrass (blackgrass [23]): 2
- Effects Annual bluegrass (annual bluegrass [24]): 3
- Effects Common lambsquarters (common lambsquarters [25]): 5
- Effects Livid amaranth (livid amaranth [26]): 5
- Effects Velvetleaf (velvetleaf [27]): 3
- Effects Morning glory (morning glory [28]): 5

SMILES: CCCC(=Cc1cccc(C(F)(F)F)c1)c1nc2cc(C#N)c(F)cc2o1 [I-c-139]
- Effects Barnyardgrass (barnyard grass [1]): 4
- Effects Bulrush (bulrush): 3
- Effects Cyperus serotinus Rottb. (Cyperus serotinus Rottb.): 1
- Effects Corn (corn [2]): 2
- Effects Solgum (solgum [3]): 3
- Effects Soybean (soybean [4]): 5
- Effects Sugar beat (sugar beat [5]): 5
- Effects Wheat (wheat [6]): 2
- Effects Large crabgrass (Large crabgrass [7]): 5
- Effects Barnyardgrass (barnyard grass [8]): 5
- Effects Green foxtail (green foxtail [9]): 5
- Effects Blackgrass (blackgrass [10]): 5
- Effects Annual bluegrass (annual bluegrass [11]): 5
- Effects Common lambsquarters (common lambsquarters [12]): 5
- Effects Livid amaranth (livid amaranth [13]): 5
- Effects Velvetleaf (velvetleaf [14]): 5
- Effects Morning glory (morning glory [15]): 5
- Effects Corn (corn [16]): 2
- Effects Sotton (cotton): 4
- Effects Solgum (solgum [17]): 2
- Effects Soybean (soybean [18]): 5
- Effects Sugar beat (sugar beat [19]): 4
- Effects Wheat (wheat [20]): 2
- Effects Large crabgrass (Large crabgrass [21]): 4
- Effects Barnyardgrass (barnyardgrjass): 3
- Effects Green foxtail (green foxtail [22]): 4
- Effects Blackgrass (blackgrass [23]): 4
- Effects Annual bluegrass (annual bluegrass [24]): 4
- Effects Common lambsquarters (common lambsquarters [25]): 5
- Effects Livid amaranth (livid amaranth [26]): 5
- Effects Velvetleaf (velvetleaf [27]): 4
- Effects Morning glory (morning glory [28]): 5

SMILES: CCC(=Cc1cccc(C(F)(F)F)c1)c1nc2cc(C#N)c(Cl)cc2o1 [I-c-143]
- Effects Barnyardgrass (barnyard grass [1]): 5
- Effects Bulrush (bulrush): 5
- Effects Corn (corn [2]): 1
- Effects Solgum (solgum [3]): 3
- Effects Soybean (soybean [4]): 3
- Effects Sugar beat (sugar beat [5]): 5
- Effects Wheat (wheat [6]): 1
- Effects Large crabgrass (Large crabgrass [7]): 5
- Effects Barnyardgrass (barnyard grass [8]): 4
- Effects Green foxtail (green foxtail [9]): 5
- Effects Blackgrass (blackgrass [10]): 4
- Effects Annual bluegrass (annual bluegrass [11]): 5
- Effects Common lambsquarters (common lambsquarters [12]): 5
- Effects Livid amaranth (livid amaranth [13]): 5
- Effects Velvetleaf (velvetleaf [14]): 5
- Effects Morning glory (morning glory [15]): 5

SMILES: FC(F)(F)c1cccc(C=Cc2nc3ccccc3o2)c1 [I-c-1]
- Effects Barnyardgrass (barnyard grass [1]): 3
- Effects Bulrush (bulrush): 3
- Effects Cyperus serotinus Rottb. (Cyperus serotinus Rottb.): 3
- Effects Corn (corn [2]): 1
- Effects Solgum (solgum [3]): 1
- Effects Wheat (wheat [6]): 0
- Effects Large crabgrass (Large crabgrass [7]): 5
- Effects Barnyardgrass (barnyard grass [8]): 5
- Effects Green foxtail (green foxtail [9]): 5
- Effects Blackgrass (blackgrass [10]): 5
- Effects Annual bluegrass (annual bluegrass [11]): 5
- Effects Common lambsquarters (common lambsquarters [12]): 5
- Effects Livid amaranth (livid amaranth [13]): 5
- Effects Morning glory (morning glory [15]): 1
- Effects Corn (corn [16]): 2
- Effects Sotton (cotton): 2
- Effects Solgum (solgum [17]): 1
- Effects Soybean (soybean [18]): 5
- Effects Sugar beat (sugar beat [19]): 3
- Effects Wheat (wheat [20]): 1
- Effects Large crabgrass (Large crabgrass [21]): 3
- Effects Barnyardgrass (barnyardgrjass): 1
- Effects Green foxtail (green foxtail [22]): 3
- Effects Blackgrass (blackgrass [23]): 1
- Effects Annual bluegrass (annual bluegrass [24]): 1
- Effects Common lambsquarters (common lambsquarters [25]): 3
- Effects Livid amaranth (livid amaranth [26]): 4
- Effects Velvetleaf (velvetleaf [27]): 2
- Effects Morning glory (morning glory [28]): 5
